Experimental findings from ChEMBL document CHEMBL5724914, “Linking interpersonal differences in gut microbiota composition and drug biotransformation activity” (2024) are described below.

The conditions of series [1]: human gut metagenome, 24 h, 2 µM.
A short description of series [2]: The drug is tested on Z-020 corresponding to rabbit gut metagenome with ENA study accession number: PRJEB37062 and ENA sample accession number: ERS12561819 for biotransformation under anaerobic condition. The drug concentrations were measured over 9 timepoints collected between 0 and 24 hours of incubation by liquid-chromatography-coupled mass spectrometry (LC–MS). Conditions: 2 µM.

A short description of series [3]: The drug is tested on Z-027 corresponding to metagenome with ENA study accession number: PRJEB37062 and ENA sample accession number: ERS12561826 for biotransformation under anaerobic condition. The drug concentrations were measured over 9 timepoints collected between 0 and 24 hours of incubation by liquid-chromatography-coupled mass spectrometry (LC–MS). Conditions: 2 µM.

The conditions of series [4]: human gut metagenome, 24 h, 2 µM. The source holds these as a separate data set.
A short description of series [5]: The drug is tested on WLS-077 corresponding to human gut metagenome with ENA study accession number: PRJEB37062 and ENA sample accession number: ERS12561750 for biotransformation under anaerobic condition. The drug concentrations were measured over 9 timepoints collected between 0 and 24 hours of incubation by liquid-chromatography-coupled mass spectrometry (LC–MS). Conditions: 2 µM.

Series [6] is described as follows: The drug is tested on Z-005 corresponding to metagenome with ENA study accession number: PRJEB37062 and ENA sample accession number: ERS12561805 for biotransformation under anaerobic condition. The drug concentrations were measured over 9 timepoints collected between 0 and 24 hours of incubation by liquid-chromatography-coupled mass spectrometry (LC–MS). Conditions: 2 µM.

For series [7] the following is noted: human gut metagenome, 24 h, 2 µM. This is another data set of the same source.
The conditions of series [8]: human gut metagenome, 24 h, 2 µM. This is another data set of the same source.
Series [9] in a line: The drug is tested on WLS-027 corresponding to human gut metagenome with ENA study accession number: PRJEB37062 and ENA sample accession number: ERS12561744 for biotransformation under anaerobic condition. The drug concentrations were measured over 9 timepoints collected between 0 and 24 hours of incubation by liquid-chromatography-coupled mass spectrometry (LC–MS). Conditions: 2 µM.

The conditions of series [10]: human gut metagenome, 24 h, 2 µM. The source holds these as a separate data set.
A short description of series [11]: The drug is tested on Z-008 corresponding to metagenome with ENA study accession number: PRJEB37062 and ENA sample accession number: ERS12561808 for biotransformation under anaerobic condition. The drug concentrations were measured over 9 timepoints collected between 0 and 24 hours of incubation by liquid-chromatography-coupled mass spectrometry (LC–MS). Conditions: 2 µM.

Series [12] in a line: The drug is tested on Z-022 corresponding to mouse gut metagenome with ENA study accession number: PRJEB37062 and ENA sample accession number: ERS12561821 for biotransformation under anaerobic condition. The drug concentrations were measured over 9 timepoints collected between 0 and 24 hours of incubation by liquid-chromatography-coupled mass spectrometry (LC–MS). Conditions: 2 µM.

For series [13] the following is noted: human gut metagenome, 24 h, 2 µM. The source holds these as a separate data set.
The conditions of series [14]: human gut metagenome, 24 h, 2 µM. This is another data set of the same source.
The nature of series [15]: The drug is tested on Z-012 corresponding to metagenome with ENA study accession number: PRJEB37062 and ENA sample accession number: ERS12561812 for biotransformation under anaerobic condition. The drug concentrations were measured over 9 timepoints collected between 0 and 24 hours of incubation by liquid-chromatography-coupled mass spectrometry (LC–MS). Conditions: 2 µM.

The conditions of series [16]: human gut metagenome, 24 h, 2 µM. This is another data set of the same source.
For series [17] the following is noted: human gut metagenome, 24 h, 2 µM. This is another data set of the same source.
A short description of series [18]: The drug is tested on Z-030 corresponding to mouse gut metagenome with ENA study accession number: PRJEB37062 and ENA sample accession number: ERS12561829 for biotransformation under anaerobic condition. The drug concentrations were measured over 9 timepoints collected between 0 and 24 hours of incubation by liquid-chromatography-coupled mass spectrometry (LC–MS). Conditions: 2 µM.

The conditions of series [19]: human gut metagenome, 24 h, 2 µM. The source holds these as a separate data set.
The nature of series [20]: The drug is tested on Z-001 corresponding to mouse gut metagenome with ENA study accession number: PRJEB37062 and ENA sample accession number: ERS12561801 for biotransformation under anaerobic condition. The drug concentrations were measured over 9 timepoints collected between 0 and 24 hours of incubation by liquid-chromatography-coupled mass spectrometry (LC–MS). Conditions: 2 µM.
Note: call rule not given here.

On to `CC(=O)OCC(CCn1cnc2cnc(N)nc21)COC(C)=O` [FAMCICLOVIR], for which the “Bacterial Biotransformation” value in series [1] is listed as “Compound NOT metabolized”; in series [2], “Compound metabolized”; in series [3], “Compound NOT metabolized”; in [4], “Compound metabolized”; in series [5] it was “Compound metabolized”; in [6], “Compound metabolized”. The “Bacterial Biotransformation” value in series [7] is on record as “Compound metabolized”; in [8], “Compound metabolized”; in [9] it was “Compound metabolized”; in series [10], “Compound metabolized”; in series [11], “Compound metabolized”; in [12] it was “Compound NOT metabolized”. Further, the “Bacterial Biotransformation” value in series [13] is on record as “Compound metabolized”; in series [14], “Compound metabolized”; in series [15] it was “Compound NOT metabolized”; in series [16], “Compound metabolized”; in series [17], “Compound metabolized”; in series [18], “Compound NOT metabolized”. Also, the “Bacterial Biotransformation” value in [19] is recorded as “Compound metabolized”; in series [20] it was “Compound NOT metabolized”.

For the molecule `O=C(O)CCC(=O)O.O=C(O[C@H]1CN2CCC1CC2)N1CCc2ccccc2[C@@H]1c1ccccc1` [SOLIFENACIN SUCCINATE], the “Bacterial Biotransformation” value is given as “Compound NOT metabolized” in [1]; “Compound metabolized” in [2]; “Compound NOT metabolized” in [3]; “Compound metabolized” in series [4]; “Compound NOT metabolized” in series [5]; “Compound metabolized” in series [6]. Further, the “Bacterial Biotransformation” value in [7] was “Compound NOT metabolized”; in series [8] it was “Compound metabolized”; in series [9] it was “Compound metabolized”; in series [10], “Compound metabolized”; in series [11], “Compound NOT metabolized”; in [12] it was “Compound metabolized”. The “Bacterial Biotransformation” value in series [13] is listed as “Compound metabolized”; in series [14], “Compound metabolized”; in [15], “Compound metabolized”; in series [16], “Compound NOT metabolized”; in series [17] it was “Compound NOT metabolized”; in series [18], “Compound NOT metabolized”. The “Bacterial Biotransformation” value in [19] and in series [20] was “Compound NOT metabolized” throughout.

Consider `CC(=O)Nc1ccc(OC(C)=O)cc1` [DIACETAMATE], for which the “Bacterial Biotransformation” value in series [1], in series [2], in series [3], in series [4], in series [5] and in series [6] was “Compound metabolized” each time. Further, the “Bacterial Biotransformation” value in [7], in series [8], in [9], in series [10], in series [11] and in series [12] was “Compound metabolized” in each case. Moreover, the “Bacterial Biotransformation” value in series [13], in series [14], in [15], in [16], in series [17] and in series [18] was “Compound metabolized” throughout. In addition, the “Bacterial Biotransformation” value in series [19] and in series [20] was “Compound metabolized” in each case.
